The text below walks through data of patent US6673354B2, “Compositions and methods for treating papillomavirus-infected cells” (priority 1998, dated 2004).

Assay [1] concerns HPV16 E2/HPV11 E1 dependent replication of the HPV11 origin. Kind of assay: In vitro replication of the HPV11 origin with HPV11 E1 and HPV16 E2. It is filed as biochemical. The procedure:
(§1) In vitro replication reactions. In vitro replication reactions were essentially as described by Kuo et al. (18) in 25 μl reactions at 37° C. for indicated times. Standard reactions were for 2 hours, and were terminated by addition of 200 μl stop solution (20 mM Tris-HCl pH 7.5, 10 mM EDTA, 0.1% SDS, and 20 μg/ml RNase A). After incubation at 37° C. for 15 minutes, proteinase K was added (200 μg/ml) and incubation was continued 30 minutes. Samples were extracted with 250 μl phenol/chloroform/isoamyl alcohol (25:24:1), ethanol precipitated, washed with 70% ethanol, dried, resuspended in 20-30μl TE, and analyzed on a 0.8% agarose gel (TAE). The agarose gel was dried onto Hybond N+ membrane (Amersham), and replicated DNA was visualized by autoradiography. Bands were quantitated by Phosphorimager analysis. Replication templates were pKS7838-7905 (nt7838-7905/1-130) containing the HPV16 replication origin, and pUC7874-99 containing the HPV11 origin of replication (nt7874-7933/1-99). pUC7874-99 was a generously provided by Dr. Louise Chow.
The ability of the E2N-WP15 peptide to inhibit HPV11 E1 mediated replication in vitro was also tested. As shown in FIG. 7B (lanes 1-9), HPV11 E1 could cooperate with HPV16 E2 in supporting dose responsive in vitro replication of the HPV11 ori. […]

Assay [2] has as its target T1, interaction between HPV11 E1 and HPV16 E2 (Human papillomavirus 11, UniProt P04014).
T1 construct: made in house; host or cells: Hi-Five insect cells infected with recombinant baculovirus (HPV-11 EE-E1 virus a gift from Louise Chow); nuclear extracts
Kind of assay: In vitro HPV E1-E2 binding assay, HPV11 E1 and HPV16 E2. The procedure:
(§2) In vitro HPV E1-E2 binding assay. 300-500 ng protein from HPV16 or HPV11 EE-E1 expressing recombinant baculovirus infected cell nuclear extracts and 80-120 ng from HPV E2 baculovirus infected cell nuclear extracts were incubated in 500 μl NET-gel buffer (50 mM Tris-HCl pH7.5, 150 mM NaCl, 0.1% NP-40, 1 mM EDTA, 0.25% gelatin) at 4° C. for one hour. 1-2 μg anti-EE monoclonal antibody was added and incubated with shaking at 4° C. for one hour. Immune complexes were precipitated with protein-G agarose beads and washed twice for 30 minutes with ice cold NET-gel buffer. Precipitated proteins were detected by Western blot using appropriate primary antibodies and anti-rabbit IgG HRP or anti-mouse IgG HRP (Amersham). Membranes were blocked for one hour in TNET (10 mM Tris 7.5, 2.5 mM EDTA, 50 mM NaCl, 0.1% Tween-20) containing 4% (w/v) dry milk. Washes and antibody reactions were carried out in TNET, and proteins were visualized by chemiluminescence (Reneaissance ECL, NEN) and autoradiography. Bands were quantitated using the NIH image program.
(§3) Very little is known about the physical properties of domains within the papillomavirus E1 and E2 proteins that are involved in intermolecular recognition and association. […] The effect of the E2N-WP15 peptide on these interactions was also assessed. […]

In assay [3] the test system is in vitro HPV16 DNA replication. The assay can be described thus: In vitro replication of HPV16 DNA (293 cell extract, EE-E1, HPV16 E2). The format is biochemical. The note with it: 40 ng EE-E1 and 6 ng HPV16 E2, FIG. 7. The procedure: as §1
We sought to establish a system for the study of HPV16 DNA replication in vitro, and to determine whether specific interaction between HPV16 E1 and E2 was required for HPV16 DNA replication in this system. […] As has been documented for other papillomavirus E1 proteins, some replication was observed using relatively large amounts of E1 in the absence of E2 (lanes 2 through 7) (6, 16, 22, 33, 40, 48). […] Replication in this assay is ori-dependent, since the small amount of replication of the pKS plasmid lacking the HPV16 origin detected at high concentrations of EE-E1 (FIG. 3B, lanes 1-6) was not stimulated by E2 (FIG. 1B, lanes 7-12).
Since the E2N-WP23 and E2N-WP 15 peptides could inhibit interaction between […] E1 and E2, their ability to inhibit in vitro HPV16 DNA replication was also tested (FIGS. 7A and 7B).

In assay [4] the target is T2, HPV11 E1/E2 interaction (Human papillomavirus 11, UniProt P04014).
T2 construct: made in house; host or cells: Hi-Five insect cells infected with recombinant baculoviruses (gift from Louise Chow); nuclear extracts
The assay can be described thus: In vitro HPV E1-E2 binding assay, HPV11 E1 and HPV11 E2. The procedure: as §2, §3

Assay [5] addresses T3, interaction between HPV16 E1 and E2 (Human papillomavirus type 16, UniProt P03114).
T3 construct: made in house; host or cells: Hi-Five insect cells infected with recombinant baculovirus (pVL1392); nuclear extracts
Kind of assay: In vitro HPV E1-E2 binding assay (co-immunoprecipitation / Western blot), HPV16 E1 and HPV16 E2. The procedure: as §2
Therefore, we reasoned that a peptide encompassing this domain of HPV16 E2 might inhibit interaction between HPV16 E1 and E2, thereby inhibiting HPV16 DNA replication (FIG. 5). In order to test this possibility, HPV16 E2 and epitope tagged full length HPV16 E1 (EE16-E1) proteins were expressed separately using baculovirus vectors. EE-E1 and associated E2 proteins were immunoprecipitated using an anti-EE epitope monoclonal antibody. Precipitated E2 was detected by Western blot using polyclonal antiserum raised to the DNA binding domain of HPV16 E2 (35). As shown in lane 2 of FIG. 6A, E2 co-immunoprecipitated with EE16-E1, but was not precipitated by the EE epitope antibody in the absence of EE16-E1 (lane 1). Peptides encompassing HPV16 E2 amino acids 29-51 (E2N-WP23) or residues 33-47 (E2N-WP15) of HPV16 E2 were then tested for inhibition of E1-E2 interaction. These peptide sequences were derived from the sequence of HPV16 E2, and were based on an alignment of amino terminal residues that are conserved among the papillomavirus E2 proteins (FIG. 5). […] Both the HPV16 E2 protein itself and the E2 derived peptides act specifically in these assays, since the E39A replication defective HPV16 E2 mutant bound only slightly to EE16-E1 (lanes 14). […] These peptides are named E2N-MP23 and E2N-MP15, respectively (see FIG. 5). […] We have previously shown that a domain spanning amino acids 421-647 of the HPV16 E1 carboxy terminus is necessary and sufficient for E2 interaction (45).

For assay [6], the target named is T4, epitope tagged full length HPV16 E1 (EE16-E1) (human papillomavirus type 16, UniProt P03114 1-649).
T4 construct: range 1-649; also called EE-E1; HPV16 EE-E1
T4 sequence: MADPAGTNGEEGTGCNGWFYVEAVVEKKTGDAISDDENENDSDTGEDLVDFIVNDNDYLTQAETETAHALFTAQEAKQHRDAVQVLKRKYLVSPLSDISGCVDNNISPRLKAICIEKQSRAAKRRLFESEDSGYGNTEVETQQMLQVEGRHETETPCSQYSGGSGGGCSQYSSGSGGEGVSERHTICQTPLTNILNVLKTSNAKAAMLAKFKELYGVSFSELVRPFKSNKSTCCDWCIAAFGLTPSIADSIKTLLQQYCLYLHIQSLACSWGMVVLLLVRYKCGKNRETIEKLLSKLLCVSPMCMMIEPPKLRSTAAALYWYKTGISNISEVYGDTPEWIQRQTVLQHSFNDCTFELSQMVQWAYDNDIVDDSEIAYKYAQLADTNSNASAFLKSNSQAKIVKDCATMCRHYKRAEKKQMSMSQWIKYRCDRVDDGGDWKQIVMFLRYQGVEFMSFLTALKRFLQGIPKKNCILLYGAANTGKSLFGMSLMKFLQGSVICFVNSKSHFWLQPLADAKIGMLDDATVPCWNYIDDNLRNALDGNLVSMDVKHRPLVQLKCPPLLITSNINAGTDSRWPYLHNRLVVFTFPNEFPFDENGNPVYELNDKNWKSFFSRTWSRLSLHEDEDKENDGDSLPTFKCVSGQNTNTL
Kind of assay: co-immunoprecipitation with anti-EE antibody (data not shown); pair read as HPV16 E1 with HPV11 E2.

T2 sequence (P04014 whole entry): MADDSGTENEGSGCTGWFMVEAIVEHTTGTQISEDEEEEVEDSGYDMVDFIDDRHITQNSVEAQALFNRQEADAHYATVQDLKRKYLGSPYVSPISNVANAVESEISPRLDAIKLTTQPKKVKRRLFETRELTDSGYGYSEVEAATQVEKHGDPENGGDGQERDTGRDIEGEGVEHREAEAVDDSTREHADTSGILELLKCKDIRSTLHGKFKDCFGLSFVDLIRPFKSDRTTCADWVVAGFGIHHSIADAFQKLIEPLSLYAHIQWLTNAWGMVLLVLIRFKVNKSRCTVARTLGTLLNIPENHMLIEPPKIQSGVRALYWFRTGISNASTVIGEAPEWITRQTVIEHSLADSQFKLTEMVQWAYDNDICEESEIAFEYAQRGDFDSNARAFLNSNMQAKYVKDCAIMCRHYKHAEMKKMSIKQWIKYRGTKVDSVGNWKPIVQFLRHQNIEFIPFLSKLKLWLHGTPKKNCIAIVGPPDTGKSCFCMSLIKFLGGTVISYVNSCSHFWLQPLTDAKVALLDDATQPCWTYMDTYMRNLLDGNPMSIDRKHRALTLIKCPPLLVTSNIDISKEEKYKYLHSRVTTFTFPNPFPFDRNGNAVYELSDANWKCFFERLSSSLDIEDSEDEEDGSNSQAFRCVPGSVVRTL
T1 sequence (P04014 whole entry): as above

On to WKHMRLECAIYYKAR [E2N-WP15], for which, in assay [1], the “inhibition of HPV16 E2/HPV11 E1 dependent replication of the HPV11 origin” value was “approximately the same effectiveness as its inhibition of HPV16 E1/E2 mediated in vitro replication”. Moreover, in assay [2], the “inhibition of interaction between HPV11 E1 and HPV16 E2” value was “effectively inhibited”. Further, in assay [3], the “inhibition of in vitro HPV16 DNA replication” value is on record as “could effectively inhibit in vitro replication”. For the same molecule, the “inhibition of HPV11 E1/E2 interaction” value in assay [4] is listed as “effectively inhibited”. The “effect on E1-E2 interaction of peptide added at 5 minutes” value in assay [5] (50 μM final concentration, added 5 minutes after start of binding reaction, terminated at 60 minutes) is reported as “significant inhibition of subsequent E1-E2 interaction”. For the same molecule, the “effect on E1-E2 interaction of peptide added at or after 10 minutes” value in assay [5] (50 μM final concentration, added at or after 10 minutes) was “only a minimal effect on the stability of this E1-E2 interaction”. The “inhibition of HPV16 E1-E2 interaction” value in assay [5] (increasing peptide concentrations, FIG. 6A) is “comparable inhibition of E1-E2 interaction”. Also, the “mode of inhibition of E1-E2 interaction” value in assay [5] (inhibition plotted as a function of substrate concentration (data not shown)) is listed as “competitive inhibition”.

B1: HPV11 E2 (other)
chain: MEAIAKRLDACQDQLLELYEENSIDIHKHIMHWKCIRLESVLLHKAKQMGLSHIGLQVVPPLTVSETKGHNAIEMQMHLESLAKTQYGVEPWTLQDTSYEMWLTPPKRCFKKQGNTVEVKFDGCEDNVMEYVVWTHIYLQDNDSWVKVTSSVDAKGIYYTCGQFKTYYVNFNKEAQKYGSTNHWEVCYGSTVICSPASVSSTVREVSIAEPTTYTPAQTTAPTVSACTTEDGVSAPPRKRARGPSTNNTLCVANIRSVDSTINNIVTDNYNKHQRRNNCHSAATPIVQLQGDSNCLKCFRYRLNDKYKHLFELASSTWHWASPEAPHKNAIVTLTYSSEEQRQQFLNSVKIPPTIRHKVGFMSLHLL
As to B1, the binding result in assay [6] is “no binding”.
